pIC50: −log10 of the molar value. Activity calls are given as the source filed them. No cut-off for these calls is given here.
What was measured:
MCF7 = assay: Antiproliferative activity against human MCF7 cells assessed as inhibition of cell growth incubated for 48 hrs by MTT assay; format: functional, cell-based; settings: MCF7, 48 h
HT-29 [1] = assay: Induction of ferroptosis in human HT-29 cells assessed as mitochondrial morphological change incubated for 48 hrs by transmission electron microscopic analysis; format: functional, cell-based
Cell membrane = assay: Induction of mitochondrial membrane potential loss in human HT-29 cells assessed as increase in green fluorescence incubated for 48 hrs by JC-1 staining based flow cytometry; format: cell membranes
HT-29 [2] = assay: Induction of ferroptosis in human HT-29 cells assessed as fusion of mitochondrial cristae incubated for 48 hrs by transmission electron microscopic analysis; format: functional, cell-based
HT-29 [3] = assay: Induction of ferroptosis in human HT-29 cells assessed as decrease in GPx level incubated for 48 hrs in presence of ferroptosis inhibitor CPX; format: functional, cell-based
HT-29 [4] = assay: Induction of ferroptosis in human HT-29 cells assessed as increase in intracellular malondialdehyde accumulation incubated for 48 hrs; format: functional, cell-based
HT-29 [5] = assay: Induction of ferroptosis in human HT-29 cells assessed as increase in intracellular iron level incubated for 48 hrs; format: functional, cell-based
HT-29 [6] = assay: Induction of cell death in human HT-29 cells incubated for 48 hrs in presence of ferroptosis inhibitor deferoxamine by MTT assay; format: functional, cell-based
HT-29 [7] = assay: Induction of ferroptosis in human HT-29 cells assessed as increase in intracellular lipid peroxidation accumulation incubated for 48 hrs in presence of ROS scavenger NAC by C11 BODIPY 581/591 staining based flow cytometry; format: functional, cell-based
HT-29 [8] = assay: Induction of necrosis in human HT-29 cells incubated for 48 hrs by MTT assay; format: functional, cell-based
HT-29 [9] = assay: Induction of ferroptosis in human HT-29 cells assessed as increase in intracellular iron level incubated for 48 hrs in presence of ROS scavenger NAC; format: functional, cell-based
HT-29 [10] = assay: Induction of autophagy in human HT-29 cells assessed as increase in MDC positive cells incubated for 48 hrs in presence of ROS scavenger NAC by MDC staining based flow cytometric analysis; format: functional, cell-based
HeLa = assay: Antiproliferative activity against human HeLa cells assessed as inhibition of cell growth incubated for 48 hrs by MTT assay; format: functional, cell-based
HT-29 [11] = assay: Induction of ferroptosis in human HT-29 cells assessed as increase in mitochondrial membrane density incubated for 48 hrs in presence of ferroptosis inhibitor deferoxamine by transmission electron microscopic analysis; format: functional, cell-based
HT-29 [12] = assay: Induction of apoptosis in human HT-29 cells at 1 to 4 uM incubated for 48 hrs by Annexin V-FITC/PI staining based flow cytometry; format: functional, cell-based; settings: dose 1-4 µM
HT-29 [13] = assay: Induction of ferroptosis in human HT-29 cells assessed as increase in intracellular malondialdehyde accumulation incubated for 48 hrs in presence of autophagy inhibitor 3-methyladenine; format: functional, cell-based
HT-29 [14] = assay: Induction of ferroptosis in human HT-29 cells assessed as increase in intracellular malondialdehyde accumulation incubated for 48 hrs in presence of ferroptosis inhibitor deferoxamine; format: functional, cell-based
HT-29 [15] = assay: Induction of cell cycle arrest in human HT-29 cells assessed as accumulation of cells at G2/M phase at 1 uM incubated for 48 hrs by propidium iodide staining based flow cytometric analysis; format: functional
HT-29 [16] = assay: Induction of ROS production in human HT-29 cells assessed as increase in red fluorescence intensity incubated for 48 hrs by DHE fluorescent probe based flow cytometry; format: functional, cell-based

In the case of `COc1ccc2c(c1)NCCN2C(=O)NCCCl`, the pIC50 (MCF7) was 5.15, the Activity (HT-29 [1]) was “Active” and the Activity (Cell membrane) was “Dose-Dependent Effect”. For the same compound, the Activity (HT-29 [2]) was “Active”, the Activity (HT-29 [3]) was “inactive” and the Activity (HT-29 [4]) was “Dose-Dependent Effect”. For the same compound, the Activity (HT-29 [5]) was “Dose-Dependent Effect”, the Activity (HT-29 [6]) was “inactive” and the Activity (HT-29 [7]) was “inactive”. For the same compound, the Activity (HT-29 [8]) was “Active”, the Activity (HT-29 [9]) was “inactive” and the Activity (HT-29 [10]) was “inactive”. For the same compound, the pIC50 (HeLa) was 5.21, the Activity (HT-29 [11]) was “inactive” and the Activity (HT-29 [12]) was “inactive”. The Activity (HT-29 [13]) was “Active”, the Activity (HT-29 [14]) was “inactive” and the Activity (HT-29 [15]) was “inactive”. For the same compound, the Activity (HT-29 [16]) was “Active”.

From ChEMBL document CHEMBL5505995, “Discovery of novel urea derivatives as ferroptosis and autophagy inducer for human colon cancer treatment” (Eur J Med Chem, 2024)
